From patent US12084472B2 (Ardelyx, Inc., priority 2015, dated 2024)

target: T1, human TGR5 (Homo sapiens, UniProt Q8TDU6); test: Cell-based TGR5 assay (cAMP generation, HTRF); details: HEK293 cells stably transfected with human TGR5; cAMP by HTRF; 30 minutes at 37° C.; read-out: pEC50 Human TGR5 (converted)
T1 construct: expressed in transfected cells; host or cells: HEK293
T1 sequence (Q8TDU6 1-330): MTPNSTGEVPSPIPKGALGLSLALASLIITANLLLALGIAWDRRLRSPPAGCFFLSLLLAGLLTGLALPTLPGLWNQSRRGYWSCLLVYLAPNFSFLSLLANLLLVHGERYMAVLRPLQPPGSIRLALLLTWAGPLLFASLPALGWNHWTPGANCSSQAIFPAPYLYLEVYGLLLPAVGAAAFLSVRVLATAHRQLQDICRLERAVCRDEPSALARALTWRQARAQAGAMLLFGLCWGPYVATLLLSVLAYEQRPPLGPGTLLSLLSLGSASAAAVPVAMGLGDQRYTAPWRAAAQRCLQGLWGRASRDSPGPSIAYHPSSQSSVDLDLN
Outline: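 Read-out was HTRF detection of cAMP, converted to concentration via a standard curve and fitted (3-parameter logistic) for pEC50 and maximal response. Agonist stimulation used HEK293 cells stably transfected with human TGR5, incubated 30 min at 37° C in IBMX-containing buffer at 0.05 nM to 10 μM compound.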

Row | EC50 [µM] | Compound
1 | < 0.1 | Cc1ccc(C)c(CNC2(c3cnccc3-c3ccccc3OC3CC3)CC2)c1 [Compound I-24, 1-[4-(2-cyclopropoxyphenyl)pyridin-3-yl]-N-[(2,5-dimethylphenyl)methyl]cyclopropan-1-amine]
2 | 0.126 to 1 | O=C(NCCOCC[S+]([O-])c1ccc(Cl)c(COC2(c3cnccc3-c3ccccc3OC3CC3)CC2)c1)NC[C@H](O)[C@@H](O)[C@H](O)[C@H](O)CO (stereo partly drawn) [Compound I-491, 1-[2-(2-[[4-chloro-3-([1-[4-(2-cyclopropoxyphenyl)pyridin-3-yl]cyclopropoxy]methyl)benzene]sulfinyl]ethoxy)ethyl]-3-[(2S,3R,4R,5R)-2,3,4,5,6-pentahydroxyhexyl]urea]
3 | < 0.1 | CCN(CCCCc1cc(Cl)c(COC2(c3cnccc3-c3ccccc3OC3CC3)CC2)cc1Cl)C(=O)[C@@H](O)[C@@H](O)[C@H](O)[C@@H](O)CO (stereo in doubt) [Compound I-209, (2S,3S,4R,5S)-N-{4-[2,5-dichloro-4-({1-[4-(2-cyclopropoxyphenyl)pyridin-3-yl]cyclopropoxy}methyl)phenyl]butyl}-N-ethyl-2,3,4,5,6-pentahydroxyhexanamide]
4 | 0.126 to 1 | O=C(CCCSc1ccc(Cl)c(COC2(c3cnccc3-c3ccccc3OC3CC3)CC2)c1)N(C[C@@H](O)[C@H](O)[C@@H](O)[C@@H](O)CO)[C@H]1CC[C@@H](O)CC1 [Compound I-688, 4-{[4-chloro-3-({1-[4-(2-cyclopropoxyphenyl)pyridin-3-yl]cyclopropoxy}methyl)phenyl]sulfanyl}-N-[(2R,3S,4S,5S)-2,3,4,5,6-pentahydroxyhexyl]-N-[(1s,4s)-4-hydroxycyclohexyl]butanamide]
5 | < 0.1 | O=C(NC[C@H](O)[C@@H](O)[C@H](O)[C@H](O)CO)c1ccc(CCc2ccc(Cl)c(COC3(c4cnccc4-c4ccccc4OC4CC4)CC3)c2)cn1 [Compound I-748, 5-(4-chloro-3-((1-(4-(2-cyclopropoxyphenyl)pyridin-3-yl)cyclopropoxy)methyl)phenethyl)-N-((2S,3R,4R,5R)-2,3,4,5,6-pentahydroxyhexyl)picolinamide]
6 | < 0.1 | Cc1cc(COC2(c3cnccc3-c3ccccc3OC3CC3)CC2)c(Cl)cc1CCCCC(=O)NC[C@H](O)[C@@H](O)[C@H](O)[C@H](O)CO [Compound I-145, 5-[5-chloro-4-({1-[4-(2-cyclopropoxyphenyl)pyridin-3-yl]cyclopropoxy}methyl)-2-methylphenyl]-N-[(2S,3R,4R,5R)-2,3,4,5,6-pentahydroxyhexyl]pentanamide]
7 | 0.126 to 1 | O=C1NCCN1CCN(CCCCSc1ccc(Cl)c(CNC2(c3cnccc3-c3ccccc3OC3CC3)CC2)c1)C(=O)[C@@H](O)[C@@H](O)[C@H](O)[C@@H](O)CO [Compound I-624, (2S,3S,4R,5S)-N-[4-({4-chloro-3-[({1-[4-(2-cyclopropoxyphenyl)pyridin-3-yl]cyclopropyl}amino)methyl]phenyl}sulfanyl)butyl]-2,3,4,5,6-pentahydroxy-N-[2-(2-oxoimidazolidin-1-yl)ethyl]hexanamide]
8 | 0.126 to 1 | Cc1ccccc1-c1ccncc1C1(OCc2cc(Cl)ccc2Cl)CC1 [Compound I-773, 3-(1-((2,5-dichlorobenzyl)oxy)cyclopropyl)-4-(o-tolyl)pyridine]
9 | 0.126 to 1 | CC(OCCc1cc(Cl)c(COC2(c3cnccc3-c3ccccc3OC3CC3)CC2)cc1Cl)C(=O)NC[C@H](O)[C@@H](O)[C@H](O)[C@H](O)CO (stereo partly drawn) [Compound I-152, 2-{2-[2,5-dichloro-4-({1-[4-(2-cyclopropoxyphenyl)pyridin-3-yl]cyclopropoxy}methyl)phenyl]ethoxy}-N-[(2S,3R,4R,5R)-2,3,4,5,6-pentahydroxyhexyl]propanamide]
10 | 0.126 to 1 | Cc1ccc(SCCCCN(C(=O)[C@@H](O)[C@@H](O)[C@H](O)[C@@H](O)CO)C2CCOCC2)cc1CNC1(c2cnccc2-c2ccccc2OC2CC2)CC1 [Compound I-560, (2S,3S,4R,5S)-N-[4-({3-[({1-[4-(2-cyclopropoxyphenyl)pyridin-3-yl]cyclopropyl}amino)methyl]-4-methylphenyl}sulfanyl)butyl]-2,3,4,5,6-pentahydroxy-N-(oxan-4-yl)hexanamide]
11 | 0.126 to 1 | CC(=O)N1C[C@@H]2C[C@H]1CN2S(=O)(=O)c1ccc(Cl)c(COC2(c3cnccc3-c3ccccc3OC3CC3)CC2)c1 [Compound I-780, 1-((1S,4S)-5-((4-chloro-3-((1-(4-(2-cyclopropoxyphenyl)pyridin-3-yl)cyclopropoxy)methyl)phenyl)sulfonyl)-2,5-diazabicyclo[2.2.1]heptan-2-yl)ethan-1-one]
12 | < 0.1 | COCCC(=O)N(CCCCc1cc(Cl)c(COC2(c3cnccc3-c3ccccc3OC3CC3)CC2)cc1Cl)C[C@H](O)[C@@H](O)[C@H](O)[C@H](O)CO [Compound I-75, N-(4-(2,5-dichloro-4-((1-(4-(2-cyclopropoxyphenyl)pyridin-3-yl)cyclopropoxy)methyl)phenyl)butyl)-3-methoxy-N-((2S,3R,4R,5R)-2,3,4,5,6-pentahydroxyhexyl)propanamide]
13 | < 0.1 | Cc1ccc(C(C)CCCC(=O)N(C[C@H](O)[C@@H](O)[C@H](O)[C@H](O)CO)C(C)C)cc1CNC1(c2cnccc2-c2ccccc2OC2CC2)CC1 (stereo partly drawn) [Compound I-353, 5-{3-[({1-[4-(2-cyclopropoxyphenyl)pyridin-3-yl]cyclopropyl}amino)methyl]-4-methylphenyl}-N-[(2S,3R,4R,5R)-2,3,4,5,6-pentahydroxyhexyl]-N-(propan-2-yl)hexanamide]
14 | < 0.1 | CN(CCC(=O)NC[C@H](O)[C@@H](O)[C@H](O)[C@H](O)CO)S(=O)(=O)c1ccc(Cl)c(COC2(c3cnccc3-c3ccccc3OC3CC3)CC2)c1 [Compound I-434, 3-[N-methyl4-chloro-3-({1-[4-(2-cyclopropoxyphenyl)pyridin-3-yl]cyclopropoxy}methyl)benzenesulfonamido]-N-[(2S,3R,4R,5R)-2,3,4,5,6-pentahydroxyhexyl]propanamide]
15 | < 0.1 | CCN(C[C@H](O)[C@@H](O)[C@H](O)[C@H](O)CO)C(=O)CCCCc1cc(Cl)c(COC2(c3cnccc3-c3ccccc3OC3CC3)CC2)cc1Cl [Compound I-108, 5-[2,5-dichloro-4-({1-[4-(2-cyclopropoxyphenyl)pyridin-3-yl]cyclopropoxy}methyl)phenyl]-N-ethyl-N-[(2S,3R,4R,5R)-2,3,4,5,6-pentahydroxyhexyl]pentanamide]
16 | 0.126 to 1 | COCc1ccccc1-c1ccncc1C1(NCc2cc(Cl)ccc2Cl)CC1 [Compound I-12]
17 | 0.126 to 1 | Cc1ccc(CCCCNC(=O)NC[C@H](O)[C@@H](O)[C@H](O)[C@H](O)CO)nc1CNC1(c2cnccc2-c2ccccc2OC2CC2)CC1 [Compound I-705]
18 | < 0.1 | CC(CCCN(C(=O)[C@@H](O)[C@@H](O)[C@H](O)[C@@H](O)CO)C1CCS(=O)(=O)CC1)c1ccc(Cl)c(CNC2(c3cnccc3-c3ccccc3OC3CC3)CC2)c1 (stereo partly drawn) [Compound I-295, (2S,3S,4R,5S)-N-(4-{4-chloro-3-[({1-[4-(2-cyclopropoxyphenyl)pyridin-3-yl]cyclopropyl}amino)methyl]phenyl}pentyl)-N-(1,1-dioxo-1λ^6-thian-4-yl)-2,3,4,5,6-pentahydroxyhexanamide]
